From article PMC12209456, “Serine/threonine/tyrosine kinase 1 drives pancreatic carcinogenesis via GSK3β sequestration-mediated Wnt/β-catenin pathway hyperactivation” (Signal Transduction and Targeted Therapy, 2025)
Where a name gives a salt, the structure may show the parent alone.

Assays:
[1] = system: β-catenin/TCF4 transcriptional activity; test: 7TGC reporter assay; assay type: cell-based, human; conditions: PANC-1 cells, EGF (100 ng/mL) or CQ (100 μM)
Text: The PCR products of STYK1, GSK3β, and Axin1 were cloned into pcDNA3.1-3×HA, pCMV-3×Flag (Sigma, E4401), and pCMV-mCherry (constructed by our lab) respectively. […] To make STYK1, β-catenin, GSK3β, or BLK mutants or truncations, a series of forwarding primers harboring the desired mutations were used in PCRs. The nucleotide sequences of all constructs were confirmed by DNA sequencing. […] DNA and interference RNA were transfected with Lipofectamine 3000 (Invitrogen, L3000015) according to the manufacturer’s instructions. shRNA for STYK1 #1: 5ʹ- [sequence] -3ʹ. #2: 5ʹ- [sequence] -3ʹ. siRNA for STYK1 was 5ʹ- [sequence] -3ʹ. siRNA for β-catenin was 5ʹ- [sequence] -3ʹ. siRNA for HRS was 5ʹ- [sequence] -3ʹ, siRNA for VPS24 was 5ʹ- [sequence] -3ʹ.

CyclinD1/Axin2/C-myc = test: Wnt target gene expression (western blot, qRT-PCR); assay type: cell-based, human; conditions: PANC-1 cells, EGF (100 ng/mL) or CQ (100 μM)
Procedure: Whole-cell extracts were prepared with 1% sodium dodecyl sulfate lysis buffer with freshly added 1% proteinase inhibitor cocktail (Biomake, B14001) and 1 mM phenylmethylsulfonyl fluoride (PMSF, MCE, HY-B0496). Western blot was performed as described previously.[20]
Total RNA was extracted from cultured pancreatic cancer cells using Trizol reagent (Invitrogen) according to the manufacturer’s protocol. qRT-PCR was performed as previously described.^3 The mRNA expression level for each sample was normalized to the expression of GAPDH using the 2 ^-ΔΔct method^4 with three biological replicates of comparative qRT-PCR. The following primer sequences were used for qRT-PCR: GAPDH, (forward) 5′- […] -3′ and (reverse) 5′- […] -3′; CyclinD1, (forward) 5′- […] -3′ and (reverse) 5′- […] -3′; C-myc, (forward) 5′- […] -3′ and (reverse) 5′- […] -3′; Axin2, (forward) 5′- […] -3′ and (reverse) 5′- […] -3′; STYK1, (forward) 5′- […] -3′ and (reverse) 5′- […] -3′. Amplification was performed in an ABI Q3 real-time PCR system using a SYBR Green master mix (YEASEN, 11201ES08).

PANC-1 xenograft = PANC-1 xenograft in nude mice; assay type: in vivo, mouse
Procedure: PANC-1 xenograft tumors were further established in nude mice via subcutaneous hindlimb injection (Fig. 8e). 25 mg/kg STYK1-driving peptides were intraperitoneally injected twice a week after the subcutaneous tumor formed.
(2) Mouse subcutaneous xenograft experiments were carried out as previously described.[25] Female BALB/c nude mice (4-week-old, 18–22 g) were sourced from Hunan SJA Laboratory Animal (Cat: hnslkjd006; Changsha, China) and housed under SPF conditions with routine health surveillance.

[2] = system: Wnt/β-catenin signaling in colorectal cancer; conditions: cited from earlier work
Text: Continuously activated Wnt/β-catenin signaling via genetic or epigenetic ways, serves as a potent oncogenic driver across malignancies, spurring intensive efforts to develop targeted inhibitors. Nonetheless, tissue homeostasis and regeneration could be impaired upon the blockade of Wnt signaling, which needs to be resolved and limits Wnt-based therapies. Recent breakthroughs have unmasked tumor-specific vulnerabilities, identifying cancer-cell-restricted regulators that fine-tune Wnt signaling outputs, offering promising avenues for selectively crippling oncogenic Wnt activity.[59] For example ...

Wnt/β-catenin signaling = test: STYK1-mediated Wnt/β-catenin signaling, PANC-1 cells; assay type: cell-based, human
Procedure: (§1) Whole-cell extracts were prepared with 1% sodium dodecyl sulfate lysis buffer with freshly added 1% proteinase inhibitor cocktail (Biomake, B14001) and 1 mM phenylmethylsulfonyl fluoride (PMSF, MCE, HY-B0496). Western blot was performed as described previously.[20] The following primary antibodies were used: anti-phospho-β-catenin (Ser33/37/Thr41) (9561, Cell Signaling Technology), anti-β-catenin (51067-2-AP, Proteintech), anti-β-TrCP (4394, Cell Signaling Technology), anti-Non-phospho (Active) β-catenin (Ser33/37/Thr41) (8814, Cell Signaling Technology), anti-STYK1 (862318, zenbio), anti-C-myc (10828-1-AP, Proteintech), anti-CyclinD1 (60186-1-Ig, Proteintech), anti-Axin2 (20540-1-AP, Proteintech), anti-mouse HA (M180-3, EMD Millipore), anti-Rabbit HA (51064-2-AP, Proteintech), anti-mouse […] (M185, MBL), anti-Rabbit […] […]

p62 and LC3 = test: Autophagic flux markers p62 and LC3, PANC-1 cells (western blot); assay type: cell-based, human
Procedure: as §1

[3] = system: STYK1 Y191 phosphorylation by BLK kinase; test: STYK1 tyrosine phosphorylation by BLK (IP-Western / in vitro kinase assay); assay type: biochemical; conditions: HEK293T cells, BLK overexpression; GST-STYK1 ICD and HA-BLK kinase reactions
Procedure: as §1
GST affinity-isolation assay was performed as described previously.[18] […] Surface plasmon resonance analysis (Biacore T200) quantified binding kinetics between GST-β-catenin/GSK3β and synthetic α-helical peptides, with dissociation constants calculated via BIA evaluation software.

With `CCN(CC)CCCC(C)Nc1ccnc2cc(Cl)ccc12` (stereo not shown) [CQ, chloroquine diphosphate salt] the “Wnt signaling in the 7TGC system” value [1] was “decreased Wnt signaling in the 7TGC system” and the “STYK1-mediated alteration of the Wnt/β-catenin target genes C-myc, Axin2” value (CyclinD1/Axin2/C-myc) was “down-regulated STYK1-mediated alteration of the Wnt/β-catenin target genes C-myc, Axin2”.

In the case of `Oc1nc(-c2ccc(C(F)(F)F)cc2)nc2c1CSCC2` [XAV939], the “tumor growth (methods statement)” value (PANC-1 xenograft; BALB/c nude mice, PANC-1 xenografts, biweekly intraperitoneal, synthetic peptides (25 mg/kg)) is reported as “reduced tumor growth” and the “STYK1-mediated xenograft tumor growth” value (PANC-1 xenograft; PANC-1 xenografts with STYK1 WT or mutants, nude mice, n = 3) is reported as “suppressed STYK1-mediated xenograft tumor growth, including mutant variants”.

For `C/C=C/[C@H]1O[C@@](O)([C@@H](C)[C@H](O)[C@H](C)[C@H]2OC(=O)/C(OC)=C/C(C)=C/[C@@H](C)[C@@H](O)[C@@H](CC)[C@@H](O)[C@H](C)C/C(C)=C/C=C/[C@@H]2OC)C[C@@H](O)[C@@H]1C` [concanamycin], the “inhibition of Wnt/β-catenin signaling” value [2] is given as “marked inhibition of Wnt/β-catenin signaling in colorectal cancer”.

For `O=C(N/N=C/c1ccc(O)c(O)c1)c1cc2ccccc2cc1O` [dynasore], the “STYK1-mediated activation of Wnt/β-catenin signaling” value (Wnt/β-catenin signaling) was “significantly blocked STYK1-mediated activation of Wnt/β-catenin signaling”, the “level of LC3” value (p62 and LC3) was “decreased” and the “level of p62” value (p62 and LC3) was “increased”.

With `CN1CCN(CCOc2cc(OC3CCOCC3)c3c(Nc4c(Cl)ccc5c4OCO5)ncnc3c2)CC1` [saracatinib] the “BLK-mediated phosphorylation of STYK1 Y191” value [3] was “saracatinib inhibition”.

For bafilomycin, the “inhibition of Wnt/β-catenin signaling” value [2] is given as “marked inhibition of Wnt/β-catenin signaling in colorectal cancer”.
